US10472356B2, “Bicyclic ketone sulfonamide compounds” (AMGEN INC., priority 2015, dated 2019)

Legend:
Assay type in all cases: cell-based
[1] = biological target: T1, human Nav1.7 (Homo sapiens, UniProt Q15858); experiment: Nav 1.7 In Vitro PatchXpress (PX) Assay; conditions: HEK 293 cells stably transfected with human Nav1.7; PatchXpress whole cell voltage clamp; partially inactivated state (holding potential yielding 20 to 50% inactivation); read-out: hNav1.7 PX IC50
T1 construct: expressed in transfected cells; host or cells: HEK293
In short: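 Percent inhibition of peak sodium current taken after 3 min exposure to one compound concentration, 3–5 cells each, with IC50 curve fits. Partially inactivated channels (20–50% inactivation at holding potential) in Nav1.7-HEK 293 cells, activated by 20 ms steps to −10 mV every 10 s.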

[2] = biological target: T1, human Nav1.7; experiment: Nav 1.7 IWB In Vitro Assay (IonWorks Barracuda); conditions: HEK293 cells stably transfected with human Nav 1.7; IonWorks Barracuda population patch-clamp; cells clamped to −20 mV for 4 minutes with compound; 26th pulse; read-out: hNav1.7 IWB IC50
In short: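 IC50 derived from concentration-response of percent block of the 26th-pulse peak inward current, compound vs none. Protocol: stable human Nav 1.7 HEK293 cells on automated population patch clamp, held at −110 mV, 5 Hz train of 150 ms steps to −20 mV, 4 min compound exposure depolarized at −20 mV, 3 s repolarization, train repeated.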

[3] = biological target: T1, human Nav1.7; experiment: Nav 1.7 IWQ In Vitro Assay (IonWorks Quattro); conditions: HEK293 cells stably transfected with human Nav 1.7; IonWorks Quattro population patch-clamp; 26th pulse to −20 mV, 5 Hz; cells unclamped 5 to 8 minutes with compound; read-out: hNav1.7 IWQ IC50
In short: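 Population patch clamp on HEK293 cells stably expressing human Nav 1.7: held at −110 mV for three seconds, then 26 pulses of 150 msec to −20 mV at 5 Hz, before and after 5-8 min with one compound concentration. Percent inhibition from peak current at the 26th pulse.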

T1 sequence (Q15858 whole entry): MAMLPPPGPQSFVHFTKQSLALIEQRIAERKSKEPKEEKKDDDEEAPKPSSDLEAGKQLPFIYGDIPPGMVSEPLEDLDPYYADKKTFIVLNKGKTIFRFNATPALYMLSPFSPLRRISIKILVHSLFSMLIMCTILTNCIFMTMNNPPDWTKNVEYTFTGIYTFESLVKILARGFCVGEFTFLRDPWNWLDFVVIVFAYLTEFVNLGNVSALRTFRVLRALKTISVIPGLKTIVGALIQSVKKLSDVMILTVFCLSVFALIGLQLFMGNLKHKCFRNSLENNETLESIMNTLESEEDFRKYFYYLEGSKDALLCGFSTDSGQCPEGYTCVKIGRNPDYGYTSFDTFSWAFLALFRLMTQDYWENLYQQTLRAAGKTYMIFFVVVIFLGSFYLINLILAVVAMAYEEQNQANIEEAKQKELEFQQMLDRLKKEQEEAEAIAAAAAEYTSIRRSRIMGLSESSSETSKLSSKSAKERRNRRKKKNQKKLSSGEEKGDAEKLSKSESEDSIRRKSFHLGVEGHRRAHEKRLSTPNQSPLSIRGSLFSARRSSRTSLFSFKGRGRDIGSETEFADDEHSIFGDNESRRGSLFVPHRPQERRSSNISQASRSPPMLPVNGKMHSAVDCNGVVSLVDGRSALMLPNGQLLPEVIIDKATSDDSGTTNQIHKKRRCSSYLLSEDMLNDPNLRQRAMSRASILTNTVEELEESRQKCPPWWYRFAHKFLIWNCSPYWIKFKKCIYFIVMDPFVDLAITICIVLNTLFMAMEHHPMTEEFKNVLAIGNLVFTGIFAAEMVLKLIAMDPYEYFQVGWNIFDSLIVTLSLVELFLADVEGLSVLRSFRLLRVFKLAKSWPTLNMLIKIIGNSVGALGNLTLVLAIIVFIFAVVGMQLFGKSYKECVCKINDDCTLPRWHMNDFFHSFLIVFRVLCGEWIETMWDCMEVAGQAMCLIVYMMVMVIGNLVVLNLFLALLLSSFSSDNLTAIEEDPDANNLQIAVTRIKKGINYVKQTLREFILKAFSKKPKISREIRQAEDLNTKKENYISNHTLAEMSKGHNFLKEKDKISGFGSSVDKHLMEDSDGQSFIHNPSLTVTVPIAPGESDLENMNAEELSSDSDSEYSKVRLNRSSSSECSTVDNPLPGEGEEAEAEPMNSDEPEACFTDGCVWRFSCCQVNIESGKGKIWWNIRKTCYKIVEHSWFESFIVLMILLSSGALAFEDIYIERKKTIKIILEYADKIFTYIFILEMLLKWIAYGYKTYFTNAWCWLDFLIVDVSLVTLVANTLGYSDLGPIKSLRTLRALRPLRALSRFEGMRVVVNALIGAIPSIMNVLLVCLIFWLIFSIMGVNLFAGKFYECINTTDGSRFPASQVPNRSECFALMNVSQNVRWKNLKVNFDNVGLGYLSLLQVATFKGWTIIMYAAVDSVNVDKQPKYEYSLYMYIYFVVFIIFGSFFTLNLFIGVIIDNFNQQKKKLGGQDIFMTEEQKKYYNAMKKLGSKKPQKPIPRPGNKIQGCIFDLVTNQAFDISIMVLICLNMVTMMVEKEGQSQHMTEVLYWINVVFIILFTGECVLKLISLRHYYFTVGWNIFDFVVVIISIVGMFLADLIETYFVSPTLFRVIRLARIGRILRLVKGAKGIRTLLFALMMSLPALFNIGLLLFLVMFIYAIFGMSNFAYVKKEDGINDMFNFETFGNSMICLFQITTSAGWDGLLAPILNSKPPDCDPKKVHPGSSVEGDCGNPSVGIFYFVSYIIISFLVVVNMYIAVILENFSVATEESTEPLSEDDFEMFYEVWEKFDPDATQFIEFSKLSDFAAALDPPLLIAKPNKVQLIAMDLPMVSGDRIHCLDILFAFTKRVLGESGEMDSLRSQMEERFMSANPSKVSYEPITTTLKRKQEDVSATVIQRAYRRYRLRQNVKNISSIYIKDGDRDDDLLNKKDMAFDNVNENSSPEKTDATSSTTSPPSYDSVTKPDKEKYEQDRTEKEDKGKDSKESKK

Structure (SMILES): COc1cc(-c2cccc(OC(F)F)c2)c(F)cc1-n1c2c(ccc1=O)CN(S(=O)(=O)Nc1ccon1)CC2 (single isomer, unassigned) [Example 19-P, P-1-(3′-(difluoromethoxy)-2-fluoro-5-methoxy-4-biphenylyl)-N-3-isoxazolyl-2-oxo-1,5,7,8-tetrahydro-1,6-naphthyridine-6(2H)-sulfonamide]
- IC50 [1]: 0.0333 µM
- IC50 [2]: 0.0074 µM
- IC50 [3]: 0.005 µM

Structure (SMILES): COc1cc(-c2ccc(F)c(F)c2)c(F)cc1-n1c2c(ccc1=O)CN(S(=O)(=O)Nc1ccon1)CC2 (single isomer, unassigned) [Example 20-P, P-N-3-isoxazolyl-2-oxo-1-(2,3′,4′-trifluoro-5-methoxy-4-biphenylyl)-1,5,7,8-tetrahydro-1,6-naphthyridine-6(2H)-sulfonamide]
- IC50 [1]: 0.0393 µM
- IC50 [2]: 0.0115 µM
- IC50 [3]: 0.0036 µM

Structure (SMILES): COc1cc(-c2ccc(C)c(F)c2)c(F)cc1-n1c2c(ccc1=O)CN(S(=O)(=O)Nc1ccon1)CC2 (single isomer, unassigned) [Example 21-P, P-1-(2,3′-difluoro-5-methoxy-4′-methyl-4-biphenylyl)-N-3-isoxazolyl-2-oxo-1,5,7,8-tetrahydro-1,6-naphthyridine-6(2H)-sulfonamide]
- IC50 [1]: 0.0243 µM
- IC50 [2]: 0.0095 µM
- IC50 [3]: 0.0077 µM

Structure (SMILES): COc1cc(-c2ccc(F)c(C)c2)c(F)cc1-n1c2c(ccc1=O)CN(S(=O)(=O)Nc1ccon1)CC2 (single isomer, unassigned) [Example 22-P, P-1-(2,4′-difluoro-5-methoxy-3′-methyl-4-biphenylyl)-N-3-isoxazolyl-2-oxo-1,5,7,8-tetrahydro-1,6-naphthyridine-6(2H)-sulfonamide]
- IC50 [1]: 0.106 µM
- IC50 [2]: 0.008 µM
- IC50 [3]: 0.0032 µM

Structure (SMILES): COc1cc(-c2ccc(Cl)c(C)c2)c(F)cc1-n1c2c(ccc1=O)CN(S(=O)(=O)Nc1ccon1)CC2 (single isomer, unassigned) [Example 24-P, P-1-(4′-chloro-2-fluoro-5-methoxy-3′-methyl-4-biphenylyl)-N-3-isoxazolyl-2-oxo-1,5,7,8-tetrahydro-1,6-naphthyridine-6(2H)-sulfonamide]
- IC50 [1]: 0.0209 µM
- IC50 [2]: 0.0038 µM
- IC50 [3]: 0.0052 µM

Structure (SMILES): COc1cc(-c2ccc(Cl)c(C)c2)c(F)cc1-n1c2c(ccc1=O)CN(S(=O)(=O)Nc1ncccn1)CC2 (single isomer, unassigned) [Example 30-P, P-1-(4′-chloro-2-fluoro-5-methoxy-3′-methyl-4-biphenylyl)-2-oxo-N-2-pyrimidinyl-1,5,7,8-tetrahydro-1,6-naphthyridine-6(2H)-sulfonamide]
- IC50 [1]: 0.197 µM
- IC50 [2]: 0.0375 µM
- IC50 [3]: 0.0133 µM

Structure (SMILES): COc1cc(-c2ccc(F)c(F)c2)c(F)cc1-n1c2c(ccc1=O)CN(S(=O)(=O)Nc1cccnn1)CC2 (single isomer, unassigned) [Example 32-P, P-2-oxo-N-3-pyridazinyl-1-(2,3′,4′-trifluoro-5-methoxy-4-biphenylyl)-1,5,7,8-tetrahydro-1,6-naphthyridine-6(2H)-sulfonamide]
- IC50 [1]: 0.144 µM
- IC50 [2]: 0.0175 µM
- IC50 [3]: 0.0184 µM

Structure (SMILES): COc1cc(-c2ccc(Cl)c(C)c2)c(F)cc1-n1c2c(ccc1=O)CN(S(=O)(=O)Nc1cccnn1)CC2 (single isomer, unassigned) [Example 33-P, P-1-(4′-chloro-2-fluoro-5-methoxy-3′-methyl-4-biphenylyl)-2-oxo-N-3-pyridazinyl-1,5,7,8-tetrahydro-1,6-naphthyridine-6(2H)-sulfonamide]
- IC50 [1]: 0.0213 µM
- IC50 [2]: 0.0126 µM
- IC50 [3]: 0.0147 µM

Structure (SMILES): COc1cc(C#CC2CCCC2)c(F)cc1-n1c2c(ccc1=O)CN(S(=O)(=O)Nc1ccon1)CC2 (single isomer, unassigned) [Example 34-P, P-1-(4-(cyclopentylethynyl)-5-fluoro-2-methoxyphenyl)-N-3-isoxazolyl-2-oxo-1,5,7,8-tetrahydro-1,6-naphthyridine-6(2H)-sulfonamide]
- IC50 [1]: 0.192 µM
- IC50 [2]: 0.0122 µM
- IC50 [3]: 0.0092 µM

Structure (SMILES): COc1cc(-c2cc(F)cc(Cl)c2)c(F)cc1-n1c2c(ccc1=O)CN(S(=O)(=O)Nc1cccnn1)CC2 (single isomer, unassigned) [Example 38-P, P-1-(3′-chloro-2,5′-difluoro-5-methoxy-4-biphenylyl)-2-oxo-N-3-pyridazinyl-1,5,7,8-tetrahydro-1,6-naphthyridine-6(2H)-sulfonamide]
- IC50 [1]: 0.0561 µM
- IC50 [2]: 0.0109 µM
- IC50 [3]: 0.0067 µM

Structure (SMILES): COc1cc(-c2cc(OC)c(-n3c4c(ccc3=O)CN(S(=O)(=O)Nc3ccon3)CC4)cc2F)ccc1C (single isomer, unassigned) [Example 58-P, P-1-(2-fluoro-3′,5-dimethoxy-4′-methyl-4-biphenylyl)-N-3-isoxazolyl-2-oxo-1,5,7,8-tetrahydro-1,6-naphthyridine-6(2H)-sulfonamide]
- IC50 [1]: 0.107 µM
- IC50 [2]: 0.0092 µM
- IC50 [3]: 0.0194 µM

Structure (SMILES): COc1cc(-c2cccc(C(F)(F)F)c2)c(Cl)cc1-n1c2c(ccc1=O)CN(S(=O)(=O)Nc1cccnn1)CC2 (single isomer, unassigned) [Example 91-P, P-1-(2-chloro-5-methoxy-3′-(trifluoromethyl)-[1,1′-biphenyl]-4-yl)-2-oxo-N-(pyridazin-3-yl)-1,2,7,8-tetrahydro-1,6-naphthyridine-6(5H)-sulfonamide]
- IC50 [1]: 0.0169 µM
- IC50 [2]: 0.0035 µM
- IC50 [3]: 0.0034 µM

Structure (SMILES): COc1cc(-c2cc(F)cc(F)c2)c(F)cc1-n1c2c(ccc1=O)CN(S(=O)(=O)Nc1ccon1)[C@H](C)C2 [Example 3-D-P, P-(7R)-N-3-isoxazolyl-7-methyl-2-oxo-1-(2,3′,5′-trifluoro-5-methoxy-4-biphenylyl)-1,5,7,8-tetrahydro-1,6-naphthyridine-6(2H)-sulfonamide]
- IC50 [1]: 0.23 µM
- IC50 [2]: 0.04 µM
- IC50 [3]: 0.0405 µM

Structure (SMILES): COc1cc(-c2cccc(OC(F)(F)F)c2)c(F)cc1-n1c2c(ccc1=O)CN(S(=O)(=O)Nc1cccnn1)CC2 [Example 66, P-1-(2-fluoro-5-methoxy-3′-(trifluoromethoxy)-[1,1′-biphenyl]-4-yl)-2-oxo-N-(pyridazin-3-yl)-1,2,7,8-tetrahydro-1,6-naphthyridine-6(5H)-sulfonamide]
- IC50 [1]: 0.0371 µM
- IC50 [2]: 0.0038 µM
- IC50 [3]: 0.0023 µM

Structure (SMILES): COc1cc(-c2cccc(OCC(F)(F)F)c2)c(F)cc1-n1c2c(ccc1=O)CN(S(=O)(=O)Nc1cccnn1)CC2 [Example 68, P-1-(2-fluoro-5-methoxy-3′-(2,2,2-trifluoroethoxy)-[1,1′-biphenyl]-4-yl)-2-oxo-N-(pyridazin-3-yl)-1,2,7,8-tetrahydro-1,6-naphthyridine-6(5H)-sulfonamide]
- IC50 [1]: 0.0742 µM
- IC50 [2]: 0.0053 µM
- IC50 [3]: 0.0024 µM

Structure (SMILES): COc1cc(-c2ccc(F)c(C(F)(F)F)c2)c(F)cc1-n1c2c(ccc1=O)CN(S(=O)(=O)Nc1cccnn1)CC2 [Example 71, P-1-(2,4′-difluoro-5-methoxy-3′-(trifluoromethyl)-[1,1′-biphenyl]-4-yl)-2-oxo-N-(pyridazin-3-yl)-1,2,7,8-tetrahydro-1,6-naphthyridine-6(5H)-sulfonamide]
- IC50 [1]: 0.0294 µM
- IC50 [2]: 0.0069 µM
- IC50 [3]: 0.0028 µM

Structure (SMILES): COc1cc(-c2cc(Cl)cc(OC(F)(F)F)c2)c(F)cc1-n1c2c(ccc1=O)CN(S(=O)(=O)Nc1cccnn1)CC2 [Example 77, P-1-(3′-chloro-2-fluoro-5-methoxy-5′-(trifluoromethoxy)-[1,1′-biphenyl]-4-yl)-2-oxo-N-(pyridazin-3-yl)-1,2,7,8-tetrahydro-1,6-naphthyridine-6(5H)-sulfonamide]
- IC50 [1]: 0.0405 µM
- IC50 [2]: 0.0044 µM
- IC50 [3]: 0.0013 µM

Structure (SMILES): COc1cc(Cl)cc(-c2cc(OC)c(-n3c4c(ccc3=O)CN(S(=O)(=O)Nc3ccon3)CC4)cc2F)c1 [Example 89, P-1-(3′-chloro-2-fluoro-5,5′-dimethoxy-[1,1′-biphenyl]-4-yl)-N-(isoxazol-3-yl)-2-oxo-1,2,7,8-tetrahydro-1,6-naphthyridine-6(5H)-sulfonamide]
- IC50 [1]: 0.0199 µM
- IC50 [2]: 0.0088 µM
- IC50 [3]: 0.0013 µM

Structure (SMILES): COc1cc(OC)cc(-c2cc(OC)c(-n3c4c(ccc3=O)CN(S(=O)(=O)Nc3ccon3)CC4)cc2F)c1 [Example 90, P-1-(2-fluoro-3′,5,5′-trimethoxy-[1,1′-biphenyl]-4-yl)-N-(isoxazol-3-yl)-2-oxo-1,2,7,8-tetrahydro-1,6-naphthyridine-6(5H)-sulfonamide]
- IC50 [1]: 0.164 µM
- IC50 [2]: 0.0365 µM
- IC50 [3]: 0.0032 µM
